The values below come from US8999655B2, “Increase of myeloid microvesicles in the cerebrospinal fluid as biomarker of microglia/macrophage activation in neurological disorders” (Consiglio Nazionale delle Ricerche, priority 2010, dated 2015).

Assay [1] deals with Cultured hippocampal neurons. Nature of the assay: Calcium imaging (FURA-2) of basal cytosolic calcium in neurons exposed to Aβ-treated MVs. Type of assay: cell-based. Conditions: APV and CNQX applied together; FIG. 12G. The method, then:
(§1) FIG. 12. Cultured hippocampal neurons were loaded with the ratiometric calcium dye FURA-2 for 1 h. During FURA-2 loading, neurons were exposed to microglia-derived microvesicles pre-incubated overnight in neuronal medium in the presence or in the absence of Abeta 1-42 (5 μM). Neurons were then wash in Kreb's ringer and resting calcium levels and calcium responsiveness to glutamate agonists (AMPA 100 μM, NMDA 100 μM) were evaluated using a single cell calcium imaging system. […] PI uptake and fragmentation of neuronal cytoskeleton (C) and staining for annexin-V, quantified in F, indicate that Aβ-treated MVs strongly affect neuronal viability. […] I Quantitative analysis of mean amplitude of calcium responses evoked by AMPA or NMDA in control neurons and neurons exposed to Aβ-treated AD MVs.
Polychrome V (TILL Photonics, Grafelfing, Germany) was used as a light source. Fura-2 fluorescence images were collected with a PCO Super VGA SensiCam (Axon Instruments, Forest City, Calif., USA) and analyzed with TILL vision software. […] The ratio values in discrete areas of interest were calculated from sequences of images to obtain temporal analyses. Calcium concentrations were expressed as F340/380 fluorescence ratios.

Assay [2] deals with Cultured hippocampal neurons. As to the kind of experiment: Quantification of neuronal damage (PI uptake, annexin-V staining) after Aβ-treated MVs. Type of assay: cell-based. To be noted: 20 μM CNQX and 100 μM APV applied together during 1 h exposure to Aβ-treated MVs, read 24 h later. The method, then: as §1
Living neurons were exposed annexin-V-FITC, fixed with 4% paraphormaldeyde and counterstained with antibodies direct against the neuronal marker SNAP-25. Apoptotic processes, labelled by annexin-V, were quantified by the Image J software and normalized to SNAP-25 immunoreactivity, as an index of neurite density. […] PI positive nuclei were quantified and normalized to total Hoescht positive nuclei. α-tubulin staining was carried out to evaluate integrity of neuronal cytoskeleton. At least 10 different fields from three independent experiments have been analyzed.

The subject of assay [3] is Primary mouse microglia. As to the kind of experiment: Release of AnnexinV+ shed vesicles from ATP-stimulated microglia, measured by FACS. Type of assay: cell-based. Conditions: FIG. 13. The method, then:
FIG. 13. FTY720 treatment. Primary mouse microglia was pre-treated, or not, with FTY720, also named fingolimod or Gylenia, currently in course of registration for the treatment of multiple sclerosis, for 30 min., then ATP was added for further 30 min. to induce the release of AnnexinV^+ shed vesicles, as measured by FACS.
Dendrites of neurons exposed to Aβ1-42-treated-MVs have a frequently fragmented or beaded appearance (FIG. 12D), display abnormal cytoplasmic calcium concentration (FIG. 12A) and reduced responsiveness to glutamate agonists (FIG. 12B). […] Similar detrimental effects are induced in cultured neurons by MVs isolated from AD CSF, pre-incubated with Aβ1-42 (FIG. 12H-I). Finally, primary mouse microglia was pre-treated, or not, with FTY720, also named fingolimod or Gylenia (FIG. 13), currently in course of registration for the treatment of multiple sclerosis, for […], then ATP was added for 30 min. to induce the release of AnnexinV^+ shed vesicles, as measured by FACS. […] Therefore, the number of shed vesicles in the CSF of treated patients represents a biomarker of therapeutic efficacy of MS or other neurological disorders therapeutic treatment.

Assay [4] deals with T1, acid sphingomyelinase (A-SMase) (Homo sapiens, UniProt P17405).
T1 sequence (P17405 47-631): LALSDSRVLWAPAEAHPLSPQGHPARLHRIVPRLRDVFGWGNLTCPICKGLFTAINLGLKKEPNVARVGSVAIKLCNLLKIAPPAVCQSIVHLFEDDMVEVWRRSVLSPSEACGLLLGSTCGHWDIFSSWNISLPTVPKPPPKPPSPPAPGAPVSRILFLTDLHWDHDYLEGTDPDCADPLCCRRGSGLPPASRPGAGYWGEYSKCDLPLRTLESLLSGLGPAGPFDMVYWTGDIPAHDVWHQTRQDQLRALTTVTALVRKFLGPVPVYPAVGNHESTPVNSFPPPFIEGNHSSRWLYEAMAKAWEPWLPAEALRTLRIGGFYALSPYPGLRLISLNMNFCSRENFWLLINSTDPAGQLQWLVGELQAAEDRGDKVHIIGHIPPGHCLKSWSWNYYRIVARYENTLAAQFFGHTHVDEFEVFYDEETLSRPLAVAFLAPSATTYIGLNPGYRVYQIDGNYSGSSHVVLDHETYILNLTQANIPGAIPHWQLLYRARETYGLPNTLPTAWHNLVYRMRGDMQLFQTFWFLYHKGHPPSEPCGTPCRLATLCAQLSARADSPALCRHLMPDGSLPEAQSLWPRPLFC
To be noted: recently identified; mechanism similar to tricyclic antidepressants; cited from earlier work.

Assay [5] deals with isolectin IB-4. Nature of the assay: Specificity of IB4-FITC labelling of MVs shed from N9 microglia (flow cytometry). Type of assay: binding, Baindeiraea Simplicifolia. To be noted: melibiose pretreatment, FACS, FIG. 5B. The text has this: (§2) FIG. 5. IB-4 labeling of microglia/macrophage-derived MVs is specific. A. Differential interference contrast microscopy (right panels) and fluorescent images (left panels) of primary microglia labelled in vivo with IB4-FITC.
(§3) CSF collected from naïve mice or mice exposed to different inflammatory treatments was directly stained with FITC-conjugate Isolectin B4 from Baindeiraea Simplicifolia, (IB4-FITC, SIGMA), and the phosphatydil serine ligand annexin-V in 1% BSA. Specificity of IB4 labelling was evaluated by treating IB4-FITC with 1 M melibiose (6-O-a-D-galactopyranosyl-D-glucose, Sigma M5500) for 30 min before addition to Shed MVs (FIG. 9) as previously described (Ayoub A E et al.). CSF was then diluted in PBS buffer and labelled MVs were acquired within a fixed time interval on a Canto II HTS flow cytometer (Becton Dickinson). Data were analysed using FCS 3 software (Becton Dickinson, Franklin Lakes, N.J., USA). A gate was established on size using beads of 0.5-2 μm. Whithin this gate IB4/annexin-V double positive events (number of events/μl) were evaluated as a parameter of MVs concentration in the CSF. […] IB4 and annexin-V double positive events were evaluated as a parameter of shed MVs concentration while IB4 and CD63 double positive events was evaluated as a parameter of exosome concentration. […]
For orientation: Flow cytometry measures light scatter and fluorescence of single cells or particles in a stream.

For assay [6], the system named is isolectin IB-4. Nature of the assay: Specificity of IB4-FITC labelling of primary microglia (fluorescence microscopy). Type of assay: binding, Baindeiraea Simplicifolia. To be noted: IB4-FITC pretreated with 1M melibiose, FIG. 5A.
Excerpt: as §2, §3

For `N#Cc1cc2[nH]c(=O)c(=O)[nH]c2cc1[N+](=O)[O-]` [CNQX], the “increase in cytoplasmic calcium level induced by Aβ-treated MVs” value in assay [1] is listed as “almost completely inhibited”. In addition, in assay [2], the “neuronal damage caused by Aβ-treated MVs (PI uptake, annexin-V staining)” value is reported as “strongly prevented”.

As for `CCCCCCCCc1ccc(CCC(N)(CO)CO)cc1` [FTY720], in assay [3], the MP shedding entry is “potently inhibits MP shedding”. The “release of AnnexinV+ shed vesicles” value is “completely prevented the release of shed vesicles above background levels” in assay [3] (FTY720 pre-treatment 30 min, then ATP for further 30 min) and “completely prevented the release of shed vesicles above background levels” in assay [3] (FTY720 pre-treatment 18 h, then ATP 30 min). In addition, the “inhibition of A-SMase” value in assay [4] is reported as “inhibitor of A-SMase”.

Consider `N[C@@H](CCCP(=O)(O)O)C(=O)O` [APV], for which the “increase in cytoplasmic calcium level induced by Aβ-treated MVs” value in assay [1] is on record as “almost completely inhibited”. For the same molecule, in assay [2], the “neuronal damage caused by Aβ-treated MVs (PI uptake, annexin-V staining)” value is listed as “strongly prevented”.

Take `OC[C@H]1O[C@H](OC[C@H]2OC(O)[C@H](O)[C@@H](O)[C@@H]2O)[C@H](O)[C@@H](O)[C@H]1O` (stereo partly drawn) [melibiose, 6-O-a-D-galactopyranosyl-D-glucose]: the “IB4-FITC labeling of intact MVs” value in assay [5] is reported as “completely abolished IB4-FITC labeling”. The “IB4-FITC binding to the cell surface” value in assay [6] is listed as “completely prevents its binding to the cell surface”.
